Numbers after ± are expanded uncertainties.

A short description of the data set: molar enthalpy of vaporization or sublimation. The note with it: 298.15 K, drop calorimetry.

As to `Cc1ccc(C#N)n1C` [1,5-dimethyl-2-pyrrolecarbonitrile], for the setting “Crystal”, the molar enthalpy worked out at 78.3 ± 3.2 kJ/mol.

`N#Cc1ccc[nH]1` [2-cyanopyrrole;]: for the setting “Liquid”, the molar enthalpy amounted to 65.3 ± 2.8 kJ/mol.

The values are drawn from the NIST ThermoML archive (doi:10.1016/j.jct.2011.12.019).
